Results on four molecules are retold here after patent publication US8815221B2, “Composition used for skin whitening, plant extracted skin whitening composition and composition having a skin whitening effect” (Industrial Technology Research Institute, priority 2009, dated 2014).

The target of one assay is T1, Tyrosinase (Sigma T3824) (Agaricus bisporus, UniProt C7FF04).
T1 construct: purchased Sigma T3824
The experiment in a line: Tyrosinase inhibition test. The assay is classed as biochemical. Conditions: L-Dopa substrate; for IC50: read-out: 50% tyrosinase inhibitory concentration (IC50) (converted); for Tyrosinase inhibiting rate (%) (100 μg/ml) / inhibition at 100 µg/mL: concentration of 100 μg/ml; for inhibition at 100 µg/mL: read-out: Tyrosinase inhibiting rate (%) (100 μg/ml); for inhibition at 125 µg/mL: concentration of 125 μg/ml, read-out: Tyrosinase inhibiting rate. The method, then: Tyrosinase Inhibition Test
1. A tyrosinase solution using Tyrosinase (Sigma T3824) was prepared, wherein after diluted with a 0.1 M phosphate buffer, a 0.1 U/μl tyrosinase solution was obtained.
2. A L-Dopa solution using L-Dopa (Sigma D9628) was prepared, wherein after diluted with a 0.1 M phosphate buffer, a 1 mM L-Dopa solution was obtained and then was placed a dark environment.
3. A test sample solution was prepared comprising 10 mg/ml of a sample solution diluted with 100% of DMSO. Then the test sample solution was further diluted for require concentrations using a 0.1 M phosphate buffer.
4. 50 μl/well of the prepared test sample solution mentioned above was added into the wells of a 96 well plate (note that the same diluted concentration of DMSO for the test sample solution was also added into the wells of a 96 well plate and used for the blank group) and then 90 μl/well of the prepared 0.1 U/μl tyrosinase solution mentioned above was added thereto (the dC control group was added the 0.1 M phosphate buffer but not the 0.1 U/μl tyrosinase solution). The 96 well plate was placed under a temperature of 37° C. and mixed at 450 rpm for 5 minutes and then placed in an ELISA reader (Molecular Devices M2). The wave length of the ELISA reader was set at 492 nm to determine absorbance values of the solutions in the 96 well plate, wherein two absorbance values were determined and the average value therefrom was used as a background value. Next, 60 μl/well of the prepared 1 mM L-Dopa solution mentioned above was added to the 96 well plate (the dD control group was added the 0.1 M phosphate buffer not the 1 mM L-Dopa solution) and then the 96 well plate was placed under a temperature of 37° C. in a dark environment and mixed at 450 rpm for 15 minutes and then placed in a ELISA reader (Molecular Devices M2). The wave length of the ELISA reader was set at 492 nm to determine absorbance values of the solutions in the 96 well plate, wherein two absorbance values were determined and the average value therefrom was used as a measurement value. After the background value was subtracted from the measurement value, the tyrosinase inhibiting rate of the sample was calculated. The formula for calculating the tyrosinase inhibiting rate of the sample is shown in the following: (A−A0)−(B−B0)−dC−dD/(A−A0)×100% […]
A: absorbance value of the blank group
B: absorbance value of the sample
A0: background value of the blank group
B0: background value of the sample dC: absorbance variation for the sample only reacted with the L-Dopa dD: absorbance variation for the sample only reacted with the tyrosinase

Another assay relates to Mouse melanoma B16-F0. Kind of assay: Melanin inhibition test (melanin content analysis). It is filed as cell-based. Conditions: concentration of 100 μg/ml, B16 cells, 48 hours, read-out: Melanin content inhibiting rate. The method, then:
Mouse melanoma B16-F0 (ATCC CRL-6322, bought from Food Industry Research and Development Institute (FIRDI) (331 Shih-Pin Road, Hsinchu, 300 Taiwan R.O.C.)) was cultured in a medium (Dulbecco's MEM, DMEM) containing 10% fetal bovine serum and 1% penicillin-streptomycin under a temperature of 37° C., in a 5% CO2 incubator.
2. Melanin Content Analysis
Inhibition of B16 Cell Melanin by Extracts:
After a test sample was added to the B16 cells in the medium for 48 hours, the medium was removed. The B16 cells were washed twice with the PBS buffer and then 300 μl of a 1N NaOH which was preheated at a temperature of 70° C. was added to the B16 cells and the B16 cells were, placed in a 60° C. incubator for 60 minutes. Next, 200 μl of the 1N NaOH which had been added to the B16 cells mention above was added to a 96 well plate to determined the absorbance value at 405 nm. The formula for calculating the melanin content is shown in the following: Melanin content=(M/M0)×100%
M: absorbance value for B16 cells being treated with sample
M0: absorbance value for B16 cells not being treated with sample

Values joined by “and” are separate entries in the source; they are usually repeats but may differ in a detail not shown here. Equal entries are not always repeated.

T1 sequence (C7FF04 1-392 limits assumed): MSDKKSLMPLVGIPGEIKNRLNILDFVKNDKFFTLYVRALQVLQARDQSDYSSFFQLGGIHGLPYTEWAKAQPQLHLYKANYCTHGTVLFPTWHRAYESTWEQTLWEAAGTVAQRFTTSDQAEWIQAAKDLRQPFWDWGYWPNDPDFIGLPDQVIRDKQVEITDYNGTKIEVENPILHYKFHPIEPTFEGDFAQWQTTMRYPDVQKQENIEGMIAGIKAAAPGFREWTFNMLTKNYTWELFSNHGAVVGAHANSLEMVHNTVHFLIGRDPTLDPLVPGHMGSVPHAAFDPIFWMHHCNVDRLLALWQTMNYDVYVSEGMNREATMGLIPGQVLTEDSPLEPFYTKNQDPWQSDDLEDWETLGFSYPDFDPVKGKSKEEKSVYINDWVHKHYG

`O=C(/C=C/c1ccc(O)c(O)c1)NCCCCN(CCCNC(=O)/C=C/c1ccc(O)c(O)c1)C(=O)/C=C/c1ccc(O)c(O)c1` [Compound 4]: on Tyrosinase (Sigma T3824), the IC50 is 29.4 µM and < 30.1 µM; the inhibition at 100 µg/mL was determined as 62.2 ± 27.2%; the inhibition at 125 µg/mL worked out at 74.5 ± 16.1%. Moreover, at Tyrosinase (Sigma T3824) (listed as Structure (III)), the “Tyrosinase inhibiting rate (%) (100 μg/ml)” value is recorded as “about 63%”.

Regarding `COc1cc(/C=C/C(=O)NCCCCN(CCCNC(=O)/C=C/c2ccc(O)c(OC)c2)C(=O)/C=C/c2ccc(O)c(OC)c2)ccc1O` [Compound 2], on Tyrosinase (Sigma T3824), the IC50 is 335 µM, the inhibition at 100 µg/mL was determined as 15 ± 1.7% and the inhibition at 125 µg/mL worked out at 29.2 ± 2%.

Consider `O=C(/C=C/c1ccc(O)cc1)NCCCCN(CCCNC(=O)/C=C/c1ccc(O)cc1)C(=O)/C=C/c1ccc(O)cc1` [Compound 1], for which the inhibition at 100 µg/mL with Mouse melanoma B16-F0 was ~19.9%. On Tyrosinase (Sigma T3824), the IC50 is < 63.4 µM and 62 µM; the “Tyrosinase inhibiting rate (%) (100 μg/ml)” value turned out to be 61.2 ± 2.5%; the inhibition at 100 µg/mL is ~62%. The “Tyrosinase inhibiting rate (%) (100 μg/ml)” value on Tyrosinase (Sigma T3824) (listed as compound 1) is on record as “about 61.2±2.5%”.

Turning to `O=C(/C=C/c1ccccc1O)NCCCCN(CCCNC(=O)/C=C/c1ccccc1O)C(=O)/C=C/c1ccccc1O` [Compound 3], at Tyrosinase (Sigma T3824), the IC50 was 752 µM, the inhibition at 100 µg/mL was determined as 10.4 ± 0.1% and the inhibition at 125 µg/mL was 13.2 ± 1.1%.
